Where “and” joins values, the source holds several entries; their conditions need not be identical. Equal values may be shown once.
System: 388556-164-R-J1-PDC complex spheroid viability
Assay: Anticancer human tumor 388556-164-R-J1-PDC patient-derived colon adenocarcinoma cell line growth inhibition [RAS]
Settings: for viability, T/C: stronger effect = lower value
Excerpt: RAS pathway inhibitors in Combinations in Complex Spheroids
A high-throughput screen of multi-cell type tumor spheroids was designed to identify active combinations of RAS pathway inhibitors and targeted small molecules. Complex spheroids include a stromal component modeled by human endothelial cells (HUVEC) and fibroblasts modeled by human mesenchymal stem cells (MSCs). The concentration ranges selected for each drug and investigational agent were based upon clinically achievable concentrations if the clinical Cmax of the agent was known.
Compounds. The drugs and investigational agents: abemaciclib (NSC768073), cobimetinib (NSC768068), divarasib (GDC6063, NSC841802), docetaxel (NSC628503), GDC-1971 (RLY-1971, NSC841576), gemcitabine (NSC613327), inavolisib (NSC800729), ipatasertib (NSC767898), KB-0742 (NSC834161), MRTX-1133 (NSC836407), osimertinib (NSC779217), RMC-4630 (NSC839698), RMC-6236 (NSC851965), RMC-6291 (NSC852671), Ro-3306 (NSC812927), sapanisertib (NSC764658), SN-38 (NSC673596), staurosporine (NSC755774), SY5609 (NSC837396), and tovorafenib (DAY101, NSC766906), were obtained from the National Cancer Institute (NCI) Developmental Therapeutics Program Chemical Repository. The FDA-approved anticancer drug set is available from the NCI Developmental Therapeutics Program. […] The stock solutions were prepared in dimethyl sulfoxide (DMSO, Sigma-Aldrich, St. Louis, MO, cat. D2650) at 800-fold the tested concentration and stored at -70 degrees C prior to their use. All drugs and investigational agents were tested over a range starting from a high concentration at or near the clinical Cmax and decreasing in half-log increments. If the clinical Cmax for an agent had not been determined, the highest concentration tested was 10 microM.
Cell Culture. All cells were maintained in an incubator at 37 degrees C and 5% CO2 with 95% humidity. The PDC lines were cultured according to standard operating procedures established by the NCI PDMR. All PDCs were thawed and cultured in Matrigel-coated flasks prepared with a working solution of 1X Ham's F-12 nutrient mix, without supplementation (Invitrogen, Waltham, MA, cat. 11765054), 100 U/mL penicillin-streptomycin (Invitrogen, cat. 15140122), and 2.5% Matrigel (Corning Inc., Corning, NY, cat. 354248) for the first three passages. The 362531-283-R-J2-PDC and 782815-120-R-J1-PDC lines were cultured in 6C/Colon 1B media, which includes advanced DMEM/F-12 (Thermo Fisher Scientific, cat. 12634028), 10 mM HEPES (Thermo Fisher Scientific, cat. 15630080), 1X GlutaMAX supplement (Thermo Fisher Scientific, cat. 35050061), 0.1 mg/mL primocin (InvivoGen, San Diego, CA, cat. ant-pm-2), 10% defined fetal bovine serum, heat inactivated (HyClone Laboratories Inc., Logan, UT, cat. SH30070.03HI), 50% L-WRN conditioned media (ATCC, cat. CRL-3276), 1.25 mM N-Acetyl-L-cysteine (Sigma-Aldrich, cat. A9165), 10 mM nicotinamide (Sigma-Aldrich, cat. N0636), 1X B-27 supplement (Thermo Fisher Scientific, cat. 17504044), 1X N-2 supplement (Thermo Fisher Scientific, cat. 17502048), 50 ng/mL human EGF (Thermo Fisher Scientific, cat. PHG0311), and 10 microM Y-27632 dihydrochloride (Tocris Bioscience, cat. 1254). The K12877-001-R-J1-PDC line was cultured in 6I media, which includes all 6C/Colon 1B media plus 10 ng/mL human FGF-10 (PeproTech, cat. 100-26), 1 ng/mL human FGF-2 (PeproTech, cat. 100-18B), 1 µM prostaglandin E2 (Tocris Bioscience, cat. 2296), […] hydrocortisone (Sigma-Aldrich, cat. H4001), and […] bovine insulin (Sigma-Aldrich, cat. I6634). The K86415-001-R-J1-PDC line was cultured in 6D media, which includes all 6C/Colon 1B media components minus the L-WRN conditioned media. The 485176-168-R4-J1-PDC was cultured in PANC media, which includes all 6C/Colon 1B media plus 100 ng/mL human FGF-10 (PeproTech, cat. 100-26), 500 nM SB-431542 (Selleckchem, cat. S1067), and 10 nM gastrin (Tocris Bioscience, cat. 3006). […]

[1] = compound alone, run of 09/09/2024
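Also: spheroids exposed to compound for 7 days before readout.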
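For viability, T/C in this document: 100% = DMSO vehicle control luminescence.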

Structure (SMILES)	viability, T/C (compound 0.0316 µM)	viability, T/C (compound 0.1 µM)	viability, T/C (compound 0.316 µM)	viability, T/C (compound 1 µM)	viability, T/C (compound 3.16 µM)	viability, T/C (compound 10 µM)	IC50 [1]	viability, T/C (compound 0.00316 µM)	IC50 (curve of compound)	viability, T/C (compound 0.01 µM)	viability, T/C (compound 0.000316 µM)	viability, T/C (compound 0.000949 µM)	viability, T/C (compound 0.003 µM)	viability, T/C (compound 0.00949 µM)	viability, T/C (compound 0.03 µM)	viability, T/C (compound 0.0949 µM)	viability, T/C (compound 0.3 µM)
C#Cc1c(F)ccc2cc(O)cc(-c3ncc4c(N5CC6CCC(C5)N6)nc(OCC56CCCN5CC(F)C6)nc4c3F)c12 (stereo not drawn)	84.2% [middle of 8 runs]	75.7% [middle of 8 runs]	95.4% [middle of 8 runs]	93.8% [middle of 8 runs]	87.3% [middle of 7 runs]	70.4% [middle of 8 runs]	> 10 µM	–	–	–	–	–	–	–	–	–	–
C=CC(=O)N1CCN(c2nc(OCC3CCCN3C)nc3c(F)c(-c4nc(N)cc(C)c4C(F)(F)F)c(Cl)cc23)C(C)C1 (stereo not drawn)	99.2% [middle of 11 runs]	105% [middle of 11 runs]	102% [middle of 11 runs]	98% [middle of 11 runs]	–	–	> 1 µM	100% [middle of 11 runs]	> 1 µM	–	–	–	–	–	–	–	–
C=CC(=O)Nc1cc(Nc2nccc(-c3cn(C)c4ccccc34)n2)c(OC)cc1N(C)CCN(C)C	98.9% [middle of 4 runs]	88.7% [middle of 4 runs]	78.6% [middle of 4 runs]	64.3% [middle of 4 runs]	–	–	–	–	> 1 µM	103% (2×) and 87.1% and 86.9%	–	–	–	–	–	–	–
CC(=O)OC12COC1CC(O)C1(C)C(=O)C(O)C3=C(C)C(OC(=O)C(O)C(NC(=O)OC(C)(C)C)c4ccccc4)CC(O)(C(OC(=O)c4ccccc4)C21)C3(C)C (stereo not drawn)	89.3% [middle of 4 runs]	74.3% [middle of 4 runs]	75% [middle of 4 runs]	78.8% [middle of 4 runs]	78.5% [middle of 4 runs]	75.2% [middle of 4 runs]	–	–	> 10 µM	–	–	–	–	–	–	–	–
CC(C)n1nc(-c2ccc3oc(N)nc3c2)c2c(N)ncnc21	59.4% [middle of 4 runs]	40% (2×) and 49.2% and 51.2%	–	–	–	–	–	86.8% and 105% (2×) and 98.4%	–	83% [middle of 4 runs]	104% and 82.3% and 101% (2×)	–	–	–	–	–	–
CC(Nc1ccc2c(c1)OCCn1cc(N3C(=O)OCC3C(F)F)nc1-2)C(N)=O (stereo not drawn)	–	87.7% [middle of 4 runs]	88.6% [middle of 4 runs]	80.3% [middle of 4 runs]	74.9% [middle of 4 runs]	67.4% [middle of 4 runs]	–	–	> 10 µM	–	–	–	–	–	–	–	–
CC1(C)CCC(Nc2ncc(C(F)(F)F)c(-c3c[nH]c4c(P(C)(C)=O)c(C#N)ccc34)n2)CN1 (stereo not drawn)	–	–	–	–	–	–	–	–	> 0.3 µM	–	–	89.6% and 97.1% and 84.3%	93.9% and 97.5% and 113%	95.5% and 100% and 114%	94.3% and 100% (2×)	88.2% and 94.4% and 107%	87% and 84.8% and 87.1%
CC1(O)CCCC1n1c(=O)c(C(F)F)cc2cnc(NC3CCN(S(C)(=O)=O)CC3)nc21 (stereo not drawn)	92.6% and 106% and 83.1%	100% and 93% and 103%	107% and 99.9% and 99.4%	102% and 97.4% and 98%	111% and 105% (2×)	75.2% and 57.1% and 77.8%	–	–	> 10 µM	–	–	–	–	–	–	–	–
CCC(CC)c1cc(NC2CCC(N)C2)n2nccc2n1 (stereo not drawn)	100% [middle of 4 runs]	96.7% [middle of 4 runs]	106% (2×) and 109% and 107%	108% [middle of 4 runs]	–	32% [middle of 4 runs]	–	–	2.97 µM [middle of 4 runs]	–	–	–	–	–	–	–	–

Reference: PubChem BioAssay AID2060907 (Molecular Pharmacology Branch, DTP, NCI, 2025)
